According to patent US20170211073A1, “ANTISENSE ANTINEOPLASTIC AGENT” (priority 2014, published 2017):

What was measured:
[1] = test system: ovarian cancer cell strain SKOV-3; assay: Anticancer agent sensitivity enhancement, SKOV-3; format: cell-based; details: antisense 5 nM, 5-FU, gemcitabine
Procedure: (§1) The #10 AmNA YB-1 antisense (5 nM) was introduced into cells of the pancreatic cancer cell strain MIA PaCa-2 (FIG. 19A) and ovarian cancer cell strain SKOV-3 (FIG. 19B) using the reagent Lipofectamine RNAiMax, and cell-killing effects of the anticancer agent observed in the presence and absence of the antisense were compared. […] The anticancer agent concentrations that provided equivalent cell-killing effects are shown in blue color (5-FU) or red color (gemcitabine).

YB-1 [2] = assay: YB-1 expression in SKOV3 by real-time RT-PCR; format: cell-based; details: Lipofectamine RNAiMax
From the text: The #10 AmNA YB-1 antisense was introduced into cells of the ovarian cancer cell strain SKOV3 using the reagent Lipofectamine RNAiMax, and expression of YB-1 was examined by real-time RT-PCR.

[3] = test system: gastric cancer cell strain AS44; assay: Proliferation of AS44 cells; format: cell-based
[4] = test system: malignant mesothelioma cell strain H226; assay: H226 subcutaneous tumor model; format: in vivo; details: 10 mg/kg BW caudal vein once a week for two weeks, vs control group
Procedure: Subcutaneous tumor models of the malignant mesothelioma cell strain H226 were prepared. […] A photograph of the subcutaneous tumor after the treatment is shown in the left panel.

YB-1 [5] = assay: YB-1 expression in AS44 by real-time RT-PCR; format: cell-based; details: Lipofectamine RNAiMax
From the text: The #10 AmNA YB-1 antisense was introduced into cells of the gastric cancer cell strain AS44 using the reagent Lipofectamine RNAiMax, and expression of YB-1 was examined by real-time RT-PCR.

[6] = test system: gemcitabine-resistant human pancreatic cancer SUIT2 cells; assay: Antitumor effect of YB-1 ASO AmNA into blood, gemcitabine-resistant SUIT2 subcutaneous tumor; format: in vivo, nude mice
Procedure: Antitumor effect of administration into blood of YB-1 ASO of AmNA type, of which high safety was confirmed in Example 9 compared with ASO constituted with the conventional BNA, was examined. The human large intestine cancer cells HCT116 were subcutaneously transplanted to the thighs of nude mice. After subcutaneous tumors having a diameter of 6 to 7 mm (average tumor volume, 78 vs. 72 mm^3) were formed, 200 μg/200 μL of YB-1 ASO AmNA was administered (once every two weeks, total 2 times) into the blood from the caudal veins. The diameters of the tumors were measured over time, and tumor volumes calculated in accordance with a calculation formula, (Major axis)×(Minor axis)/2, were compared with those obtained with the control antisense group. The subcutaneous tumors were collected after one week from the second administration (day 28), and weights thereof were compared. In the YB-1 ASO AmNA group, both the tumor diameter and tumor weight were suppressed to about ⅕ of those observed with the control antisense group (FIG. 10, *P<0.05).
A human pancreatic cancer SUIT2 cell strain was prepared by culturing pancreatic cancer cells resistant to the anticancer agent, gemcitabine, for a long period of time in a medium containing gemcitabine at a low concentration (IC50 value, 100 nM for the resistant strain vs. 5 nM for the parent strain). […]

YB-1 [7] = assay: YB-1 knockdown efficiency of NA, BNA and AmNA antisenses in HUVEC, HPAEC, MiaPaCa2 (real-time RT-PCR); format: cell-based; details: 24 hours, vs naturally occurring type and LNA type antisense
Procedure: YB-1 naturally occurring type nucleic acid antisense (NA), LNA/BNA type nucleic acid antisense (BNA), and AmNA type nucleic acid antisense (AmNA) were introduced into cells of the vascular endothelial cell strains (HUVEC, HPAEC) and the pancreatic cancer cell strain (MiaPaCa2-) at various concentrations. RNAs were extracted 24 hours afterward, and the YB-1 expression was evaluated by real-time RT-PCR. […] The graphs show mean±SD (n=3, *P<0.01 vs. BNA, P<0.0001 vs. NA)

[8] = test system: gemcitabine-resistant pancreatic cancer SUIT2-GR cells; assay: Repetitive administration into blood, SUIT2-GR subcutaneous tumor growth; format: in vivo, nude mice; details: 10 mg/kg BW caudal vein once a week over three weeks, days 14 and 21
Procedure: (§2) The tumor diameters were measured over time.

[9] = test system: malignant mesothelioma cell strain H226; assay: Proliferation of H226 cells; format: cell-based
[10] = test system: pancreatic cancer cell strain SUIT2; assay: Apoptosis induction in SUIT2 by FACS and Western blotting (PARPp85, caspase-3); format: cell-based; details: 20 nM, in vitro
Procedure: In the same manner as that of Example 3, 20 nM of #10AmNA YB-1 antisense was introduced into the cells of the pancreatic cancer cell strain SUIT2 in vitro.

[11] = test system: gastric cancer cell strain AS44-luc; assay: AS44-luc peritoneum inoculation model, survival; format: in vivo; details: 10 mg/kg BW intraperitoneally once a week for two weeks, vs control group
Procedure: Peritoneum inoculation models of gastric cancer cell strain AS44-luc stably expressing luciferase were prepared. Then, after 1 week from the transplantation of the cancer cells, 10 mg/kg BW of #10 AmNA YB-1 antisense was intraperitoneally administered once a week for two weeks, and the tumor volume was evaluated over time in terms of the luciferase activity.

YB-1 [12] = assay: YB-1 knockdown siRNA vs AmNA-AON, protein level (Western blotting); format: cell-based; details: AsPC-1, MIA PaCa-2, Suit-2, 20 nM, 48 hours
Procedure: (§3) YB-1-siRNA or YB-1 #10AmNA was introduced (final concentration, 20 nM) into cells of the pancreatic cancer cell strains (AsPC-1, MIA PaCa-2, and Suit-2). After 48 hours, RNAs and proteins were extracted, and the YB-1 expression was evaluated by real-time RT-PCR and Western blotting at the mRNA level (A) and protein level (B), respectively. Both the knockdown efficiencies obtained with siRNA and #10 AmNA-AON were high at the mRNA level, and any clear difference was not observed between them. […] The graphs show mean±SD (n=3, *P<0.05).

[13] = test system: pancreatic cancer cell strain MIA PaCa-2; assay: Anticancer agent sensitivity enhancement, MIA PaCa-2; format: cell-based; details: antisense 5 nM, 5-FU, gemcitabine
Procedure: as §1

[14] = test system: pancreatic cancer cell strain SUIT-2; assay: Radiation sensitivity enhancement, SUIT-2; format: cell-based; details: antisense 10 nM
Procedure: The #10 AmNA YB-1 antisense (10 nM) was introduced into cells of the pancreatic cancer cell strain SUIT-2 using the reagent Lipofectamine RNAiMax, and cell-killing effects of X-ray irradiation observed in the presence and absence of the antisense were compared.

[15] = test system: large intestine cancer HCT116 cells; assay: Repetitive administration into blood, HCT116 subcutaneous tumor growth; format: in vivo, nude mice; details: 10 mg/kg BW caudal vein once a week over three weeks, days 14 and 21
Procedure: as §2

[16] = General blood and biochemical examinations, mice with Suit2-GR sc tumor; details: SUIT2-GR and HCT116 models; 10 mg/kg BW once a week over three weeks
Procedure: Subcutaneous tumor models were created by subcutaneously transplanting gemcitabine-resistant pancreatic cancer SUIT2-GR cells and large intestine cancer HCT116 cells to the thighs of nude mice. After tumors having a volume of 50 mm^3 were formed, 10 mg/kg BW of #10AmNA YB-1 antisense was administered from the caudal veins once a week over three weeks. The tumor diameters were measured over time.

YB-1 [17] = assay: YB-1 knockdown siRNA vs AmNA-AON, mRNA level (real-time RT-PCR); format: cell-based; details: AsPC-1, MIA PaCa-2, Suit-2; 20 nM; 48 hours
Procedure: as §3

## TCTcctgcaccCTGg (TCTCCTGCACCCTGG; chemistry not fully specified) [#10AmNA]
[1]
  cell-killing effects of the anticancer agent in presence of the antisense: Enhancement of the cell-killing effect
YB-1 [2]
  suppression of YB-1 expression: Concentration-dependent suppression
[3]
  suppression of proliferation: suppression of proliferation
[4]
  increase of the tumor in terms of tumor weight: significantly suppressed
YB-1 [5]
  suppression of YB-1 expression: Concentration-dependent suppression
[6]
  tumor weight as fraction of control antisense group: about ⅓
[6]; 200 μg/200 μL into blood, once every two weeks, total 2 times
  tumor diameter as fraction of control antisense group: about ⅓
YB-1 [7]
  YB-1 knockdown efficiency: significantly higher
[8]
  subcutaneous tumor-suppressing effect: significant subcutaneous tumor-suppressing effect
[9]
  suppression of proliferation: suppression of proliferation
[10]
  induction of apoptosis (FACS; PARPp85, caspase-3): Induction of apoptosis was observed
[11]
  survival rate (Kaplan-Meier): significantly increased
YB-1 [12]
  knockdown efficiency at the protein level: clearly higher
[13]
  cell-killing effects of the anticancer agent in presence of the antisense: Enhancement of the cell-killing effect
[14]
  cell-killing effects of X-ray irradiation in presence of the antisense: Enhancement of the cell-killing effect
[15]
  subcutaneous tumor-suppressing effect: significant subcutaneous tumor-suppressing effect
[16]
  safety with the every week administration protocol: any problem was not observed
YB-1 [17]
  knockdown efficiency at the mRNA level: high
